According to patent US20230365592A1 (Agios Pharmaceuticals, Inc., priority 2022, published 2023):

Molecular target: T1, human PAH with the R408W mutation (Homo sapiens, UniProt P00439, R408W)
T1 construct: expressed in transfected cells
T1 sequence (P00439 1-452 R408W): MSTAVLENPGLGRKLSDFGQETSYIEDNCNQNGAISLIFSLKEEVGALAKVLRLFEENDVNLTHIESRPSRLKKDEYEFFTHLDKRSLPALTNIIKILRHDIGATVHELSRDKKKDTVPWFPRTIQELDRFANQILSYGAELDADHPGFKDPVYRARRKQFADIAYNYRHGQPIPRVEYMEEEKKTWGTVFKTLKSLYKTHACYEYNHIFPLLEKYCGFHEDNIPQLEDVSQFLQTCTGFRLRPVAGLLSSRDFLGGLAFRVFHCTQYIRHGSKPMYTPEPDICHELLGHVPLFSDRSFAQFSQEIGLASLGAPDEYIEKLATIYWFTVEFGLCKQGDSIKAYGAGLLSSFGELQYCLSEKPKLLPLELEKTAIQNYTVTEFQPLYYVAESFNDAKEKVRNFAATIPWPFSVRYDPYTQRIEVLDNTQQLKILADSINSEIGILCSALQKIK
Assay: Cell Based Phenylalanine Flux Assay;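 further: after compound treatment, cells received sepiapterin plus isotope-labelled Phenylalanine for 4 hours, then labelled Tyrosine in the medium was quantified, 10-point 2-fold dilution series run in duplicate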
Details: A375 cells expressing human R408W PAH; 24 hrs compound incubation; 13C-Tyrosine by LC-MS; average where tested multiple times; read-out: AC50

Structure (SMILES) | AC50 [nM]
COCc1ccc2c(C(=O)N3CCc4[nH]cnc4[C@H]3c3cc4c(C(F)(F)F)cccn4n3)cnn2c1 [Example 1548, (S)-(6-(methoxymethyl)pyrazolo[1,5-a]pyridin-3-yl)(4-(4-(trifluoromethyl)pyrazolo[1,5-a]pyridin-2-yl)-6,7-dihydro-1H-imidazo[4,5-c]pyridin-5(4H)-yl)methanone] | 500 to 1000
COCc1ccc2c(C(=O)N3CCc4[nH]cnc4[C@@H]3c3cc4c(C(F)(F)F)cccn4n3)cnn2c1 [Example 1549, (R)-(6-(methoxymethyl)pyrazolo[1,5-a]pyridin-3-yl)(4-(4-(trifluoromethyl)pyrazolo[1,5-a]pyridin-2-yl)-6,7-dihydro-1H-imidazo[4,5-c]pyridin-5(4H)-yl)methanone] | 1000 to 5000
O=C(c1cnn2cc(-c3ccccn3)ccc12)N1CCc2[nH]cnc2[C@@H]1c1cc2c(C(F)(F)F)cccn2n1 [Example 1551, (R)-(6-(pyridin-2-yl)pyrazolo[1,5-a]pyridin-3-yl)(4-(4-(trifluoromethyl)pyrazolo[1,5-a]pyridin-2-yl)-6,7-dihydro-1H-imidazo[4,5-c]pyridin-5(4H)-yl)methanone] | 1000 to 5000
CC(C)c1nnc(C(=O)N2CCc3[nH]cnc3[C@H]2c2cc3cccc(F)n3n2)o1 [Example 1555, (S)-(4-(7-fluoropyrazolo[1,5-a]pyridin-2-yl)-6,7-dihydro-1H-imidazo[4,5-c]pyridin-5(4H)-yl)(5-isopropyl-1,3,4-oxadiazol-2-yl)methanone] | 1000 to 5000
Cc1cccn2nc([C@@H]3c4nc[nH]c4CCN3C(=O)c3nnc(C4CCC4)o3)cc12 [Example 1556, (S)-(5-cyclobutyl-1,3,4-oxadiazol-2-yl)(4-(4-methylpyrazolo[1,5-a]pyridin-2-yl)-6,7-dihydro-1H-imidazo[4,5-c]pyridin-5(4H)-yl)methanone] | < 500
Cc1cccn2nc([C@H]3c4nc[nH]c4CCN3C(=O)c3nnc(C4CCC4)o3)cc12 [Example 1557, (R)-(5-cyclobutyl-1,3,4-oxadiazol-2-yl)(4-(4-methylpyrazolo[1,5-a]pyridin-2-yl)-6,7-dihydro-1H-imidazo[4,5-c]pyridin-5(4H)-yl)methanone] | 1000 to 5000
O=C(c1nnc(C2CCC2)o1)N1CCc2[nH]cnc2[C@H]1c1cc2c(F)cccn2n1 [Example 1559, (S)-(5-cyclobutyl-1,3,4-oxadiazol-2-yl)(4-(4-fluoropyrazolo[1,5-a]pyridin-2-yl)-6,7-dihydro-1H-imidazo[4,5-c]pyridin-5(4H)-yl)methanone] | < 500
O=C(c1nnc(C2CCC2)o1)N1CCc2[nH]cnc2[C@@H]1c1cc2cccc(Cl)n2n1 [Example 1560, (R)-(4-(7-chloropyrazolo[1,5-a]pyridin-2-yl)-6,7-dihydro-1H-imidazo[4,5-c]pyridin-5(4H)-yl)(5-cyclobutyl-1,3,4-oxadiazol-2-yl)methanone] | > 5000
O=C(c1nnc(C2CCC2)o1)N1CCc2[nH]cnc2[C@H]1c1cc2cccc(Cl)n2n1 [Example 1561, (S)-(4-(7-chloropyrazolo[1,5-a]pyridin-2-yl)-6,7-dihydro-1H-imidazo[4,5-c]pyridin-5(4H)-yl)(5-cyclobutyl-1,3,4-oxadiazol-2-yl)methanone] | < 500
Cc1cccc2cc([C@@H]3c4nc[nH]c4CCN3C(=O)c3nnc(C4CCC4)o3)nn12 [Example 1562, (S)-(5-cyclobutyl-1,3,4-oxadiazol-2-yl)(4-(7-methylpyrazolo[1,5-a]pyridin-2-yl)-6,7-dihydro-1H-imidazo[4,5-c]pyridin-5(4H)-yl)methanone] | 500 to 1000
Cc1cccc2cc([C@H]3c4nc[nH]c4CCN3C(=O)c3nnc(C4CCC4)o3)nn12 [Example 1563, (R)-(5-cyclobutyl-1,3,4-oxadiazol-2-yl)(4-(7-methylpyrazolo[1,5-a]pyridin-2-yl)-6,7-dihydro-1H-imidazo[4,5-c]pyridin-5(4H)-yl)methanone] | 1000 to 5000
Cc1cc(-c2nnc(C(=O)N3CCc4[nH]cnc4[C@@H]3c3cc4cccc(F)n4n3)o2)nn1C [Example 1564, (R)-(5-(1,5-dimethyl-1H-pyrazol-3-yl)-1,3,4-oxadiazol-2-yl)(4-(7-fluoropyrazolo[1,5-a]pyridin-2-yl)-6,7-dihydro-1H-imidazo[4,5-c]pyridin-5(4H)-yl)methanone] | > 5000
Cc1nn(C)cc1-c1nnc(C(=O)N2CCc3[nH]cnc3[C@H]2c2cc3cccc(F)n3n2)o1 [Example 1566, (S)-(5-(1,3-dimethyl-1H-pyrazol-4-yl)-1,3,4-oxadiazol-2-yl)(4-(7-fluoropyrazolo[1,5-a]pyridin-2-yl)-6,7-dihydro-1H-imidazo[4,5-c]pyridin-5(4H)-yl)methanone] | 500 to 1000
Cc1nn(C)cc1-c1nnc(C(=O)N2CCc3[nH]cnc3[C@@H]2c2cc3cccc(F)n3n2)o1 [Example 1567, (R)-(5-(1,3-dimethyl-1H-pyrazol-4-yl)-1,3,4-oxadiazol-2-yl)(4-(7-fluoropyrazolo[1,5-a]pyridin-2-yl)-6,7-dihydro-1H-imidazo[4,5-c]pyridin-5(4H)-yl)methanone] | 1000 to 5000
Cc1cnn(C)c1-c1nnc(C(=O)N2CCc3[nH]cnc3[C@@H]2c2cc3c(C(F)F)cccn3n2)o1 [Example 1569, (R)-(4-(4-(difluoromethyl)pyrazolo[1,5-a]pyridin-2-yl)-6,7-dihydro-1H-imidazo[4,5-c]pyridin-5(4H)-yl)(5-(1,4-dimethyl-1H-pyrazol-5-yl)-1,3,4-oxadiazol-2-yl)methanone] | > 5000
O=C(c1nnc(-c2cnn(C(F)(F)F)c2)o1)N1CCc2[nH]cnc2[C@H]1c1cc2c(C(F)F)cccn2n1 [Example 1570, (S)-(4-(4-(difluoromethyl)pyrazolo[1,5-a]pyridin-2-yl)-6,7-dihydro-1H-imidazo[4,5-c]pyridin-5(4H)-yl)(5-(1-(trifluoromethyl)-1H-pyrazol-4-yl)-1,3,4-oxadiazol-2-yl)methanone] | < 500
O=C(c1nnc(-c2cnn(C(F)(F)F)c2)o1)N1CCc2[nH]cnc2[C@@H]1c1cc2c(C(F)F)cccn2n1 [Example 1571, (R)-(4-(4-(difluoromethyl)pyrazolo[1,5-a]pyridin-2-yl)-6,7-dihydro-1H-imidazo[4,5-c]pyridin-5(4H)-yl)(5-(1-(trifluoromethyl)-1H-pyrazol-4-yl)-1,3,4-oxadiazol-2-yl)methanone] | 1000 to 5000
O=C(c1nnc(C2CCC2)o1)N1CCc2[nH]cnc2[C@@H]1c1cc2cccc(C(F)F)n2n1 [Example 1572, (R)-(5-cyclobutyl-1,3,4-oxadiazol-2-yl)(4-(7-(difluoromethyl)pyrazolo[1,5-a]pyridin-2-yl)-6,7-dihydro-1H-imidazo[4,5-c]pyridin-5(4H)-yl)methanone] | 1000 to 5000
O=C(c1nnc(C2CCC2)o1)N1CCc2[nH]cnc2[C@H]1c1cc2cccc(C(F)F)n2n1 [Example 1573, (S)-(5-cyclobutyl-1,3,4-oxadiazol-2-yl)(4-(7-(difluoromethyl)pyrazolo[1,5-a]pyridin-2-yl)-6,7-dihydro-1H-imidazo[4,5-c]pyridin-5(4H)-yl)methanone] | 500 to 1000
O=C(c1nnc(C2CCC2)o1)N1CCc2[nH]cnc2[C@@H]1c1cc2cccc(F)n2n1 [Example 1574, (R)-(5-cyclobutyl-1,3,4-oxadiazol-2-yl)(4-(7-fluoropyrazolo[1,5-a]pyridin-2-yl)-6,7-dihydro-1H-imidazo[4,5-c]pyridin-5(4H)-yl)methanone] | 1000 to 5000
O=C(c1nnc(C2CCC2)o1)N1CCc2[nH]cnc2[C@H]1c1cc2cccc(F)n2n1 [Example 1575, (S)-(5-cyclobutyl-1,3,4-oxadiazol-2-yl)(4-(7-fluoropyrazolo[1,5-a]pyridin-2-yl)-6,7-dihydro-1H-imidazo[4,5-c]pyridin-5(4H)-yl)methanone] | < 500
COc1ccc(-c2nnc(C(=O)N3CCc4[nH]cnc4[C@H]3c3cc4cccc(C(F)F)n4n3)o2)nc1 [Example 1578, (S)-(4-(7-(difluoromethyl)pyrazolo[1,5-a]pyridin-2-yl)-6,7-dihydro-1H-imidazo[4,5-c]pyridin-5(4H)-yl)(5-(5-methoxypyridin-2-yl)-1,3,4-oxadiazol-2-yl)methanone] | 500 to 1000
COc1ccc(-c2nnc(C(=O)N3CCc4[nH]cnc4[C@@H]3c3cc4cccc(C(F)F)n4n3)o2)nc1 [Example 1579, (R)-(4-(7-(difluoromethyl)pyrazolo[1,5-a]pyridin-2-yl)-6,7-dihydro-1H-imidazo[4,5-c]pyridin-5(4H)-yl)(5-(5-methoxypyridin-2-yl)-1,3,4-oxadiazol-2-yl)methanone] | > 5000
O=C(c1nnc(-c2ncccc2F)o1)N1CCc2[nH]cnc2[C@H]1c1cc2cccc(C(F)F)n2n1 [Example 1580, (S)-(4-(7-(difluoromethyl)pyrazolo[1,5-a]pyridin-2-yl)-6,7-dihydro-1H-imidazo[4,5-c]pyridin-5(4H)-yl)(5-(3-fluoropyridin-2-yl)-1,3,4-oxadiazol-2-yl)methanone] | < 500
O=C(c1nnc(-c2ncccc2F)o1)N1CCc2[nH]cnc2[C@@H]1c1cc2cccc(C(F)F)n2n1 [Example 1581, (R)-(4-(7-(difluoromethyl)pyrazolo[1,5-a]pyridin-2-yl)-6,7-dihydro-1H-imidazo[4,5-c]pyridin-5(4H)-yl)(5-(3-fluoropyridin-2-yl)-1,3,4-oxadiazol-2-yl)methanone] | > 5000
